Patent publication US11492335B2, “Aryl or heteroaryl triazolone derivatives or salts thereof, or pharmaceutical compositions comprising the same” (YUHAN CORPORATION, priority 2018, dated 2022)
Counter-ions that a name gives are not always drawn. Like-named read-outs stand apart in the source and are kept apart here.

What was measured:
Assay type in all cases: biochemical
[1] = target: T1, recombinant human MAO-B (monoamine oxidase-B) (Homo sapiens, UniProt P27338); experiment: Activity on recombinant human MAO-B, Amplex Red method, 1 mM benzylamine substrate; details: read-out: Inhibitory Activity (IC50, nM) MAO-B
T1 construct: purchased Sigma-Aldrich
T1 sequence (P27338 1-520): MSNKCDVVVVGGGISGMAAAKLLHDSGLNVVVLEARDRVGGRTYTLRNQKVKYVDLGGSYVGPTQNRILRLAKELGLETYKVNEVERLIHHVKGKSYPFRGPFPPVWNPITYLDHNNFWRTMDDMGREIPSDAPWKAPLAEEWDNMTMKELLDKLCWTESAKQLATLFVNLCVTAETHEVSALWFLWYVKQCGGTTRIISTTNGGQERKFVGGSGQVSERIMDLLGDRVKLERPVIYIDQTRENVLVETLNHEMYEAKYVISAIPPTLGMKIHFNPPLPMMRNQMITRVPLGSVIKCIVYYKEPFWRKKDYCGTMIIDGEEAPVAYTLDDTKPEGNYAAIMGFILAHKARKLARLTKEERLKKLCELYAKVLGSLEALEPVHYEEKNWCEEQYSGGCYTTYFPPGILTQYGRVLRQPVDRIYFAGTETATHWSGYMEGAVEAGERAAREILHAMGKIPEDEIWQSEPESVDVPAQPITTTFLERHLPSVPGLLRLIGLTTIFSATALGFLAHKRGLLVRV
How it was run: (§1)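 Enzyme in pH 7.4 phosphate buffer; 30 min, 37° C with compound (DMSO <1%); start with 200 uM Amplex Red + 1 U/mL HRP + tyramine 0.5 mM (MAO-A) or benzylamine 1 mM (MAO-B); kinetic read ex 544/em 590, 1-2 h; % rate decrease vs DMSO control → IC50, 4-parameter fit.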

[2] = target: T2, recombinant human DAO (diamine oxidase) (Homo sapiens, UniProt P19801); experiment: Activity on recombinant human DAO, Amplex Red method, 1 mM putrescine substrate; details: recombinant human DAO, read-out: Inhibitory Activity (IC50, nM) DAO
T2 construct: purchased R&D systems
T2 sequence (P19801 20-751): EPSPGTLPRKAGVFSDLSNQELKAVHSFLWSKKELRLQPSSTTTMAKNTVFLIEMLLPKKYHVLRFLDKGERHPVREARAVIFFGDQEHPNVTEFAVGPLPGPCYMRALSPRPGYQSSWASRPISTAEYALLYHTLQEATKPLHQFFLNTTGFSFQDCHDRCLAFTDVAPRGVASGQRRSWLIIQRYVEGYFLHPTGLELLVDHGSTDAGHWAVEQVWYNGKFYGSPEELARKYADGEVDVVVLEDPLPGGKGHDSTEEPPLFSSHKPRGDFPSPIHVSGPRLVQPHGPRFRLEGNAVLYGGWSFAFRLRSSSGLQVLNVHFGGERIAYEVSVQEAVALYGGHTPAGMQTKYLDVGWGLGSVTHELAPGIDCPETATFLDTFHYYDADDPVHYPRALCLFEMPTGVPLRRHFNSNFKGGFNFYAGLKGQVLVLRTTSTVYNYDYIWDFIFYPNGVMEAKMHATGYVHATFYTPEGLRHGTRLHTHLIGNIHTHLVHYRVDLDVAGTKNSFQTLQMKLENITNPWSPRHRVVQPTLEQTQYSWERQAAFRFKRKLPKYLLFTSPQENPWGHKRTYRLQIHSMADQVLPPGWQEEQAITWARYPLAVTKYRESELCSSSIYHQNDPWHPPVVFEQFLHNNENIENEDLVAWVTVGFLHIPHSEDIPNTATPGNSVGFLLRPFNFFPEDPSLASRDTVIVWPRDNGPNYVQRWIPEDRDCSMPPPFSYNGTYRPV
How it was run: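 Inhibition of recombinant human DAO (diamine oxidase, R&D systems) was assessed with the Amplex Red Hydrogen Peroxide Assay Kit. Hydrogen peroxide produced from 1 mM putrescine was detected through an HRP-coupled reaction that converts Amplex Red into fluorescent resorufin, read at 544 nm excitation and 590 nm emission. IC50 values came from four-parameter logistic fits in GraphPad Prism.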

[3] = target: T3, recombinant human MAO-A (monoamine oxidase-A) (Homo sapiens, UniProt P21397); experiment: Activity on recombinant human MAO-A, Amplex Red method, 0.5 mM tyramine substrate; details: read-out: Inhibitory Activity (IC50, nM) MAO-A
T3 construct: purchased Sigma-Aldrich
T3 sequence (P21397 1-527): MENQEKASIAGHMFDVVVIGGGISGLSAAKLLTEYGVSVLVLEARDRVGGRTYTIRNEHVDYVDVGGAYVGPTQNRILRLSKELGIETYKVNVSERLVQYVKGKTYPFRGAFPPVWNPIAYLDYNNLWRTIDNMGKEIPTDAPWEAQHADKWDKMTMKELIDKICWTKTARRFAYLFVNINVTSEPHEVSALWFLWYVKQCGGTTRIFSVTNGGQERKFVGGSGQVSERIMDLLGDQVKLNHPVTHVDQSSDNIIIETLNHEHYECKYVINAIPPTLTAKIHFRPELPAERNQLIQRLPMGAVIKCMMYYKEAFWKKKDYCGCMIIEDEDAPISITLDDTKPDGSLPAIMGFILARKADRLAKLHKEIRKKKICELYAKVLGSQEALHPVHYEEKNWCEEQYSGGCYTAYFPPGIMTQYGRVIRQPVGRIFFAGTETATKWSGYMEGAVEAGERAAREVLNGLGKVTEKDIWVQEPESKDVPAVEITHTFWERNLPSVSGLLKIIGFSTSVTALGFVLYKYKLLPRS
How it was run: as §1

recombinant human VAP-1 = target: T4, recombinant human VAP-1 (Homo sapiens, UniProt Q16853); experiment: Activity on recombinant human VAP-1, Amplex Red HRP-coupled hydrogen peroxide assay, benzylamine substrate; details: recombinant human VAP-1, benzylamine substrate, read-out: Inhibitory Activity (IC50, nM) human VAP-1
T4 construct: purchased R&D systems
T4 sequence (Q16853 1-763): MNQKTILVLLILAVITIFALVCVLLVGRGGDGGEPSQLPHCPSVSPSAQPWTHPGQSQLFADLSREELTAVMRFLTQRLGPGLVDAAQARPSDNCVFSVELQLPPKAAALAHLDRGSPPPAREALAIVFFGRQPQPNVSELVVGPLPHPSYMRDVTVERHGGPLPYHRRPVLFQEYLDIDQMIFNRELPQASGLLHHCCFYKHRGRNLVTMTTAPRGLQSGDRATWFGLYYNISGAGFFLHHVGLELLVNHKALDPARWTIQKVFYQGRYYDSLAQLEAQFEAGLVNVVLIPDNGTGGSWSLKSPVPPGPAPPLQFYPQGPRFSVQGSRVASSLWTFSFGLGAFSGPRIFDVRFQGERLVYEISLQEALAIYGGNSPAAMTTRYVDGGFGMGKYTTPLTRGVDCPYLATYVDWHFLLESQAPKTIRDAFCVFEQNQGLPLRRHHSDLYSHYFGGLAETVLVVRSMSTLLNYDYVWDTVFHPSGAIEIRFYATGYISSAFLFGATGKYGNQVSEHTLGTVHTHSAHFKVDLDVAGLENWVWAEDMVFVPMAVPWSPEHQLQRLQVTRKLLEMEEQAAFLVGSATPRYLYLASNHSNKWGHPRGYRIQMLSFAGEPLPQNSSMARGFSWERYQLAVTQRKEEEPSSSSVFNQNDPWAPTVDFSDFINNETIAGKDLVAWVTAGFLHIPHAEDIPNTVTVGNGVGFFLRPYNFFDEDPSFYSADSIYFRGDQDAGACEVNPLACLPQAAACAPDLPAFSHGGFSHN
How it was run: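 Enzyme in 50 mM sodium phosphate (pH 7.4) is exposed to test compound for 30 min at 37 °C. Benzylamine (1 mM) with HRP and Amplex Red then starts the reaction, and the fluorescence rate, relative to a DMSO-only control, gives IC50.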

[4] = 1 mM putrescine, * = between 10 and 100 nM, ** = between 300 and 1000 nM

Row | Structure (SMILES) | IC50 ([1]; 1 mM benzylamine) [nM] | IC50 [2, 4] [nM] | IC50 ([3]; 0.5 mM tyramine) [nM] | IC50 (recombinant human VAP-1; 30 min preincubation at 37° C.) [nM] | IC50 ([1]; 1 mM benzylamine substrate) [nM] | IC50 ([2]; 1 mM putrescine substrate) [nM] | IC50 ([3]; 0.5 mM tyramine substrate) [nM] | IC50 (recombinant human VAP-1) [nM]
1 | NC/C(=C\F)Cn1ncn(-c2ccc(-c3cccc(-c4nnc[nH]4)c3)cc2F)c1=O [Example 44, 2-[(2E)-2-(aminomethyl)-3-fluoroprop-2-en-1-yl]-4-[3-fluoro-3′-(4H-1,2,4-triazol-3-yl)biphenyl-4-yl]-2,4-dihydro-3H-1,2,4-triazol-3-one] | 65 | < 100 | 68300 | 1.3 | – | – | – | –
2 | NC/C(=C/F)Cn1ncn(-c2cccc(-c3ccc4c(c3)OCCO4)c2)c1=O [Example 94, 2-[(2Z)-2-(aminomethyl)-3-fluoroprop-2-en-1-yl]-4-[3-(2,3-dihydro-1,4-benzodioxin-6-yl)phenyl]-2,4-dihydro-3H-1,2,4-triazol-3-one hydrochloride] | 2630 | 120 | > 100000 | 2 | – | – | – | –
3 | NC/C(=C\F)Cn1ncn(-c2cccc(-c3ccc(OC(F)(F)F)cc3)c2)c1=O [Example 50, 2-[(2E)-2-(aminomethyl)-3-fluoroprop-2-en-1-yl]-4-[4′-(trifluoromethoxy)biphenyl-3-yl]-2,4-dihydro-3H-1,2,4-triazol-3-one hydrochloride] | 510 | < 100 | > 10000 | 1 | – | – | – | –
4 | NC/C(=C/F)Cn1ncn(-c2ncc(Br)s2)c1=O [Example 40, 2-[(2Z)-2-(aminomethyl)-3-fluoroprop-2-en-1-yl]-4-(5-bromo-1,3-thiazol-2-yl)-2,4-dihydro-3H-1,2,4-triazol-3-one hydrochloride] | 619 | 25 | 80 | 1.1 | – | – | – | –
5 | Cc1cc(-c2ccc3c(c2)NC(=O)OC3)cnc1-n1cnn(C/C(=C/F)CN)c1=O [Example 156, 7-(6-{1-[(2E)-2-(aminomethyl)-3-fluoroprop-2-en-1-yl]-5-oxo-1,5-dihydro-4H-1,2,4-triazol-4-yl}-5-methylpyridin-3-yl)-1,4-dihydro-2H-3,1-benzoxazin-2-one hydrochloride] | – | – | – | – | 26000 | 38 | > 100000 | 0.3
6 | Cc1cc(-c2ccc(N3CCOCC3)nc2)cnc1-n1cnn(C/C(=C/F)CN)c1=O [Example 149, 2-[(2E)-2-(aminomethyl)-3-fluoroprop-2-en-1-yl]-4-[5-methyl-6′-(morpholin-4-yl)-3,3′-bipyridin-6-yl]-2,4-dihydro-3H-1,2,4-triazol-3-one hydrochloride] | > 10000 | 490 | > 100000 | 0.5 | – | – | – | –
7 | NC/C(=C\F)Cn1ncn(-c2cccc(-c3ccc4c(c3)OCO4)c2)c1=O [Example 93, 2-[(2E)-2-(aminomethyl)-3-fluoroprop-2-en-1-yl]-4-[3-(1,3-benzodioxol-5-yl)phenyl]-2,4-dihydro-3H-1,2,4-triazol-3-one hydrochloride] | 221 | < 100 | > 10000 | 0.48 | – | – | – | –
8 | COc1cc(-n2cnn(C/C(=C\F)CN)c2=O)ccc1Br [Example 17, 2-[(2Z)-2-(aminomethyl)-3-fluoroprop-2-en-1-yl]-4-(4-bromo-3-methoxyphenyl)-2,4-dihydro-3H-1,2,4-triazol-3-one] | 406 | 31 | > 100000 | 2.7 | – | – | – | –
9 | NC/C(=C\F)Cn1ncn(-c2cccc(C#Cc3ccc4c(n3)OCCN4)n2)c1=O [Example 253, 2-[(E)-2-(aminomethyl)-3-fluoro-allyl]-4-[6-[2-(2,3-dihydro-1H-pyrido[2,3-b][1,4]oxazin-6-yl)ethynyl]-2-pyridyl]-1,2,4-triazol-3-one] | – | – | – | – | > 10000 | 34 | > 100000 | 0.5
10 | NC/C(=C\F)Cn1ncn(-c2ccc(Br)nc2)c1=O [Example 25, 2-[(2E)-2-(aminomethyl)-3-fluoroprop-2-en-1-yl]-4-(6-bromopyridin-3-yl)-2,4-dihydro-3H-1,2,4-triazol-3-one hydrochloride] | 2300 | 25 | > 100000 | 2.4 | – | – | – | –
11 | NC/C(=C\F)Cn1ncn(-c2cccc(-c3ccc(C(=O)N4CCOCC4)cc3)c2)c1=O [Example 78, 2-[(2E)-2-(aminomethyl)-3-fluoroprop-2-en-1-yl]-4-[4′-(morpholin-4-ylcarbonyl)biphenyl-3-yl]-2,4-dihydro-3H-1,2,4-triazol-3-one hydrochloride] | > 10000 | 0.2 | > 100000 | 1 | – | – | – | –
12 | Cc1cc(-n2cnn(C/C(=C/F)CN)c2=O)ncc1-c1ccc2cn[nH]c2c1 [Example 160, 2-[(2E)-2-(aminomethyl)-3-fluoroprop-2-en-1-yl]-4-[5-(1H-indazol-6-yl)-4-methylpyridin-2-yl]-2,4-dihydro-3H-1,2,4-triazol-3-one] | – | – | – | – | 137 | < 100 | 46200 | 0.37
